# Test results reported in patent US20220133702A1, “CYSTIC FIBROSIS TRANSMEMBRANE CONDUCTANCE REGULATOR MODULATORS FOR TREATING AUTOSOMAL DOMINANT POLYCYSTIC KIDNEY DISEASE” (The Johns Hopkins University, priority 2020, published 2022).
# Entries after “also recorded” stand apart in the source; their conditions may differ.
# Key:
# [1] = system: Hsp27, Hsp70, and Hsp90 in PN cells; assay: Disappearance of Hsps after translation block with cycloheximide; format: cell-based, mouse; conditions: VX-809 10 μM with cycloheximide 25 μM
# Description: FIG. 9A, FIG. 9B, FIG. 9C, FIG. 9D, FIG. 9E, FIG. 9F, FIG. 9G, and FIG. 9H show Hsp27, HSp70, and Hsp90 expression in PN cells treated with VX-809 and/or cycloheximide. (A) Pkd1 null (PN) cells were treated with VX-809 (10 μM) and/or with cycloheximide (25 μM) for indicated time points before being harvested for the assay. (FIG. 9A) Western blot showing expression of Hsp27, Hsp70, and Hsp90 in VX-809-(16 h), cycloheximide-treated, or control PN cells. ((FIG. 9B. (FIG. 9C, and (FIG. 9D) Columns represent averages±standard errors of Hsp27, Hsp70, and Hsp90 expression in cells treated with VX-809 and/or cycloheximide. ((FIG. 9E) Western blot showing expression of Hsp27, Hsp70, and Hsp90 in PN cells treated with VX-809+cycloheximide or control PN cells. ((FIG. 9F, FIG. 9G, and FIG. 9H) Columns represent averages±standard errors of Hsp27, Hsp70, and Hsp90 expression in cells treated only with cycloheximide or in control PN cells. Data were analyzed by non-parametric t-test. The experiments were repeated 3-5 times. *P<0.05, **P<0.01;
# To gain more insight into the mechanism whereby VX-809 alters Hsp protein levels, translation was inhibited by using cycloheximide and the disappearance of the three Hsps was monitored. […] Hsp90 was reduced by approximately 25%, and Hsp27 was unchanged.
# [2] = system: CFTR; assay: Confocal localization of CFTR with ER, Golgi and PM markers; format: cell-based; conditions: treated vs control cells, Pearson's correlation with markers
# From the text: FIG. 18A and FIG. 18B show images of confocal microscopy localization studies of CFTR and localization markers in control and treated cells (FIG. 18A) and graphs showing Pearson's correlation coefficient for CFTR and localization markers in control and VX-809 treated cells (FIG. 18B).
# The localization of PC2 and CFTR in control cells was compared to the localization of PC2 and CFTR localization in VX-809 treated cells.
# [3] = system: Pkd1^fl/fl; Pax8^rtTA; TetO-cre mice; assay: Cyst growth and renal function in doxycycline-induced Pkd1 knockout mice; format: in vivo, mouse
# Description: (FIG. 1A) Representative images of postnatal day (PND) 21 kidney sections from DMSO- and VX-809-treated mice. Significant reductions occurred in (FIG. 1B) cyst index, (FIG. 1C) kidney weight, and (FIG. 1D) kidney-to-body weight ratio. […] Methods: The total kidney area and total cystic area were measured with ImageJ (provided by NIH). Cystic index=100 X (total cystic area/total kidney area) and is expressed as a percentage. Columns represent means±standard error (SEM) for DMSO (vehicle)-treated (n=4-5) and VX-809 mice. *P<0.05; **P<0.01 (for all graphs). Statistical analysis was performed using an unpaired two-tailed Student's t-test;
# When treated with doxycycline, these mice express Cre, causing knockout of PC1. […] Kidney weight (FIG. 1C) and kidney-to-body weight ratios (FIG. 1D) were also lower than those of the control mice. There was no difference in overall body weight (FIG. 1E) between the treated and untreated groups. […] The dosage of VX-809 injected was lower than the human pediatric dose, which is 500 mg of Lumacaftor per day; the adult dose is 800 mg/day.
# Mouse strain and treatment. Pkd1^fl/fl; Pax8^rtTA; TetO-cre mice on a C57BL/6 background (61) were provided by the Baltimore PKD Center. Mice of both sexes were used in this study. Mice were injected IP with doxycycline (Sigma, #D9891) (4 μg of doxycycline/g body weight) on postnatal day 11 (PND11), PND12, and PND13 to produce very rapid and aggressive cyst growth. On PND21, the mice were euthanized.
# To determine the location of PC2 in the cilia, confocal microscopy experiments using the Pkd1^fl/fl; Pax8^rtTA TetO-cre mouse model were conducted. These mice, when injected intraperitoneally (IP) with doxycycline on postnatal days (PND) 11, 12, and 13, developed multiple large cysts and large polycystic kidneys at approximately 3 weeks of age.
# [4] = system: PN (pkd1-null) cells; assay: In vitro cystogenesis (3D Matrigel culture, cyst size by cross-sectional area); format: cell-based, mouse
# Description: Cells were treated with DMSO (control), VX-809, or C18 (10 μM) plus or minus forskolin on Days 0, 2, 4, 6, 8, 10, 12, 14. […] Cells were treated with DMSO (control), C18 or VX-809 (10 μM) from 9-16 (7) days. All pictures were taken on Day 16. Columns represent means±SEM (n=6). The average cyst size from the control group was considered 100%, and the sizes of the rest of the cysts were compared with this average. ****P<0.0001. Cyst size was estimated from the cross-sectional area;
# VX-809 Reduces Cyst Growth in Vitro Experiments were conducted using a model ADPKD cell line (PH=pkd1+/− heterozygote control; PN=pkd−/− knockout), clonally isolated from single parental clones obtained from a pkdf1/− mouse that was manufactured in an ImmortoMouse containing the H-2Kb-tsA58 gene. The null cells (PN) stably express the Cre recombinase. All the cells proximal tubule origin. To determine how VX-809 reduces cyst growth, cysts were grown in the presence of forskolin (FIG. 2). […] Taken together with the animal data provided in FIG. 1, these in vitro results clearly indicate that CFTR correctors are effective in reducing cyst growth.
# In vitro cytogenesis. To induce differentiation, cells were kept at 37° C. for at least 6 days without gamma-interferon. After one week, the cells were used for 3D culture or other experiments. Growth factor-reduced Matrigel #354230 (Corning) was used, and cell dilutions were prepared so that there were approximately 6,000 cells in 25 μl of medium; 25 μl of cell preparation was mixed with 50 μl of Matrigel. Pictures were taken with a Zeiss Axio microscope. Cystic areas were analyzed with ImageJ (provided by the NIH).
# [5] = 30 mg/kg IP daily PND10 to PND20, vs DMSO-treated mice
# [6] = 30 mg/kg IP daily PND10 to PND20, vs control mice
# [7] = injected daily PND10 to PND20, vs DMSO-treated mice
smiles,measurement,setting,value
"Cc1ccc(NC(=O)C2(c3ccc4c(c3)OC(F)(F)O4)CC2)nc1-c1cccc(C(=O)O)c1 [VX-809, lumacaftor]",Hsp27 level over the 8-h period,[1],unchanged
same,Hsp90 reduction over the 8-h period,[1],approximately 25%
same,Hsp70 levels over the 8-h period,[1]; vs time 0,approximately half the level observed at time 0
same,CFTR localization,[2],statistically significant move of CFTR from the ER to Basolateral and Apical Membrane
same,overall body weight,"[3]; 30 mg/kg IP daily PND10 to PND20, treated vs untreated",no difference
same,blood urea nitrogen (BUN),[3]; [5],lowered
same,creatinine,[3]; [5],lowered
same,cyst growth (cyst index),[3]; [5],−60.4%
same,Kidney weight,[3]; [6],lower
same,kidney-to-body weight ratios,[3]; [6],lower
same,cyst growth (in words),[3]; [7],significantly less cyst growth
same,renal function,[3]; [7],improved renal function
same,size of established cysts,"[4]; 10 μM from Days 9-16, in the presence of forskolin",reduces the size of established cysts
same,cyst growth,"[4]; 10 μM on Days 0, 2, 4, 6, 8, 10, 12, 14, plus or minus forskolin",reduce cyst growth equally well; also recorded: inhibits cyst growth
same,cyst size,"[4]; every other day or Days 9-16, in the presence of forskolin",dramatically reducing cyst size
